Test results published in PMC10499793 (Nature Communications, 2023).

Assays:
Conditions in all cases: 4-nitrothiophenol as nucleophile; 400 μM thiamine; pH 7.2, 37 °C
MxThi1 = biological target: T1, MxThi1 (Myxococcus xanthus, UniProt Q1D3T2); assay: thiaminase I activity assay, 4-nitrothiophenol consumption at […] nm; format: biochemical
T1 construct: gene MXAN_4523
T1 sequence (Q1D3T2 36-418): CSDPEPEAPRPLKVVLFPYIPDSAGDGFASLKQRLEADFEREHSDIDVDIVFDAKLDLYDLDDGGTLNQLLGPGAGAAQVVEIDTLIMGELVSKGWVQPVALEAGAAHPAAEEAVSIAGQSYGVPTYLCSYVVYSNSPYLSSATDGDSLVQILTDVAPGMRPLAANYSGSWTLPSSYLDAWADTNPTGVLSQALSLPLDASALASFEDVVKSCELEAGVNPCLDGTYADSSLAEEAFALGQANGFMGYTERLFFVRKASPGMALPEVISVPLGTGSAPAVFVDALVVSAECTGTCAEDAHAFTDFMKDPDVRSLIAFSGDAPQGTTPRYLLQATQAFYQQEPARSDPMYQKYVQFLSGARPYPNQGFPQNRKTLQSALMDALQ

AcThi1 = biological target: T2, AcThi1 (Archangium violaceum, UniProt A0ACG8CQS0); assay: as above; format: biochemical
T2 construct: gene JRI60_22580
T2 sequence (A0ACG8CQS0 24-424): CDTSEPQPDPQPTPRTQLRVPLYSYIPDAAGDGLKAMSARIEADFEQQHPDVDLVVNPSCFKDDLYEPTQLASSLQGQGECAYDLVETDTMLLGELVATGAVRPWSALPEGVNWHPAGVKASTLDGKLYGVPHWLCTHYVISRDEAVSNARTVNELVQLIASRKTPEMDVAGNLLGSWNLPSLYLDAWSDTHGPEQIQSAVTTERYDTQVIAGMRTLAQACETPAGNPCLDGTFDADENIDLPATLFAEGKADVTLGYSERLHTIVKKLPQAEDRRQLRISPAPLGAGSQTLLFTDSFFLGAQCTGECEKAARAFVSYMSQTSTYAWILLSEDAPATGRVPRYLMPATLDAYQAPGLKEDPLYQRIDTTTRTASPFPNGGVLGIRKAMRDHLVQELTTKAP

CbThi1 = biological target: T3, CbThi1 (Clostridium botulinum, UniProt A5HZW3)
T3 construct: gene CBO0770
T3 sequence (A5HZW3 32-404 limits assumed): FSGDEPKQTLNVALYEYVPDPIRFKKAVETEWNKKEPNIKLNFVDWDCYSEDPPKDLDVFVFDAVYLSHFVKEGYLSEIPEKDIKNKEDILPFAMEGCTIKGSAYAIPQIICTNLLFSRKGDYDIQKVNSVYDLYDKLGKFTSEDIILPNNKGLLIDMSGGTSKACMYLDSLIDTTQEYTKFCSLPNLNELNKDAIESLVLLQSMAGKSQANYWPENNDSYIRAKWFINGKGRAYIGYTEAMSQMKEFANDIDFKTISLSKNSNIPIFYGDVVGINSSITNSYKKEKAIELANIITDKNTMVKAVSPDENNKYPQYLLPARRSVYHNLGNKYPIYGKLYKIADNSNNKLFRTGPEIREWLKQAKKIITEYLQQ

Cc1ncc(C[n+]2csc(CCO)c2C)c(N)n1 [thiamine]
thiaminase I activity assay, 4-nitrothiophenol consumption at 411 nm (MxThi1): All these recombinant proteins exhibited thiaminase I activity | thiaminase I activity assay, 4-nitrothiophenol consumption at 411 nm (AcThi1): All these recombinant proteins exhibited thiaminase I activity | thiaminase I activity assay, 4-nitrothiophenol consumption at 411 nm (CbThi1): All these recombinant proteins exhibited thiaminase I activity
